From patent publication US10183953B2, “Substituted 2-azabicycles and their use as orexin receptor modulators” (Janssen Pharmaceutica NV, priority 2013, dated 2019)

Assays:
[1] = target: rat orexin 1 receptor (Rattus norvegicus, UniProt P56718); assay: Rat orexin 1 receptor radioligand binding (competitive, HEK293 membranes); conditions: rat OX1 receptor binding; averages from between 2-20 runs; read-out: rOX1 Ki
Procedure: (§1) The in vitro affinity of the compounds of the invention for the rat/human orexin 1 and human orexin 2 receptors was determined by competitive radioligand binding using [^3H]
(§2) Data are analyzed using pc-Sandy macro and graphed on Graphpad Prism 5. For analysis, each concentration point is averaged from triplicate values and the averaged values are plotted on Graphpad Prism. The IC50 was determined by applying the following equation (GraphPad Prism 5.0, SanDiego) for one site competition where X=log (concentration) and Y=specific binding. […] Graphpad Prism calculates Ki value from IC50 and the pre-determined Kd values for [^3H]-(1-(5-(2-fluoro-phenyl)-2-methyl-thiazol-4-yl)-1-((S)-2-(5-phenyl-(1,3,4)oxadiazol-2-ylmethyl)-pyrrolidin-1-yl)-methanone) and [3H]-EMPA. […]
(§3) After centrifugation (2K×G, 5 min at 4° C.), the supernatant was aspirated and the pellets frozen and stored at −80° C. […] Total and nonspecific binding was determined in the absence and presence of 10 μM almorexant. […] Plates were dried in 55° C. oven for 60 min, scintillation fluid was added, and the radioactivity was counted on a Topcount (Packard).

[2] = target: human orexin 1 receptor (Homo sapiens (Human), UniProt O43613); assay: Human orexin 1 receptor radioligand binding (competitive, CHO membranes); conditions: human OX1 receptor binding; averages from between 2-20 runs; read-out: hOX1 Ki
human orexin 1 receptor, sequence (O43613 whole entry): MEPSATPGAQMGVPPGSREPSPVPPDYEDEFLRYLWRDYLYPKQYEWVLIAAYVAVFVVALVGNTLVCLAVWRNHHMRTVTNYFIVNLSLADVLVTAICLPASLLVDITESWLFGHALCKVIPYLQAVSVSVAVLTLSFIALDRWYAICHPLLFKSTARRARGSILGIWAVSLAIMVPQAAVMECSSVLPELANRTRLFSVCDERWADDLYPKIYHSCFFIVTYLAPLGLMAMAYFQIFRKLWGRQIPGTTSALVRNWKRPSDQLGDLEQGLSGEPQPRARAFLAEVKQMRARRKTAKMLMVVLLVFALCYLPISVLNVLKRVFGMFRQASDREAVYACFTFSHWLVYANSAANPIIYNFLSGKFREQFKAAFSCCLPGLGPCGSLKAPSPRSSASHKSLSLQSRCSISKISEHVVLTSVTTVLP
Procedure: as §1, §2, §3

[3] = target: human orexin 2 receptor (Homo sapiens (Human), UniProt O43614); assay: Human orexin 2 receptor radioligand binding ([3H]-EMPA, HEK293 membranes); conditions: human OX2 receptor binding; averages from between 2-20 runs; read-out: hOX2 Ki
human orexin 2 receptor, sequence (O43614 whole entry): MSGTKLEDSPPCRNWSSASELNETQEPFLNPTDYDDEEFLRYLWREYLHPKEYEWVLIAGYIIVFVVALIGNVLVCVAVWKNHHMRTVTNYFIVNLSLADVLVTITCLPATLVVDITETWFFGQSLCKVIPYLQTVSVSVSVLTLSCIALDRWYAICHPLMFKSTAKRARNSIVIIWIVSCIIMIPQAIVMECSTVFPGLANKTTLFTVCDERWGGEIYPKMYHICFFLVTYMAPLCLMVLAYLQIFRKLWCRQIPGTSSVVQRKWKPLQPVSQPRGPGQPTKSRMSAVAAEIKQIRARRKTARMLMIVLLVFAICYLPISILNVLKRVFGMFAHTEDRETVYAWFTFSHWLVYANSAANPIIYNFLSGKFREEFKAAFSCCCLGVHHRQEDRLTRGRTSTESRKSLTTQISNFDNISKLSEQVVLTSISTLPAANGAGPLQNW
Procedure: as §1, §2
HEK293 stably expressing human orexin 2 receptor (Genebank accession number NM_001526) were grown to confluency in DMEM (Hyclone, cat #SH30022), 10% FBS, 1×Pen/Strep, 1× NaPyruvate, 10 mM HEPES, 600 ug/ml G418 media on 150 cm^2 tissue culture plates, washed with 5 mM EDTA in PBS (HyClone Dulbecco's Phosphate Buffered Saline 1× with Calcium and Magnesium, Cat #SH30264.01, hereafter referred to simply as PBS) and scraped into 50 ml tubes. […] Total and nonspecific binding was determined in the absence and presence of 10 μM almorexant. […]

Ki [1]: 9 nM | Ki [2]: 7 nM | Ki [3]: 456 nM
Compound: O=C(c1cccc(F)c1-c1ncccn1)N1C[C@@H]2CC[C@H]1[C@H](Nc1cnc(C(F)(F)F)cn1)C2 [Example 80, (3-fluoro-2-(pyrimidin-2-yl)phenyl)((1S,4R,6R)-6-((5-(trifluoromethyl)pyrazin-2-yl)amino)-2-azabicyclo[2.2.2]octan-2-yl)methanone]
